Measured values reported in US20250304537A1 (Repare Therapeutics Inc., priority 2022, published 2025).

Target: recombinant human Myt1 (full length PKMYT1) (Homo sapiens (Human), UniProt Q99640)
Assay: Recombinant human Myt1 kinase assay (ADP-Glo)
Format: biochemical
Details: 10 μM ATP
Protocol: Detection of Myt1 kinase activity utilized a recombinant human Myt1 kinase assay measuring the hydrolysis of ATP using a commercially available ADP-Glo Assay (ADP-Glo™ Kinase Assay from Promega, 10 000 assays, #V9102). Briefly, 5 μL recombinant human Myt1 (full length PKMYT1 recombinant human protein expressed in insect cells from Thermo Fisher #A33387; ˜80% purity) was prepared in reaction buffer (70 mM HEPES, 3 mM MgCl2, 3 mM MnCl2, 50 μg/ml PEG 20000, 3 μM Na-orthovanadate, 1.2 mM DTT) and added to 384 well white polystyrene, flat bottom well, non-treated, microplate (Corning #3572). After this, 5 μL of compounds (diluted in reaction buffer to 0.5% DMSO) was added to the microplate and the plate was spun briefly and incubated at 22° C. for 15 minutes. Ultra-Pure Adenosine Triphosphate (ATP) solution (ADP-Glo kit from Promega) was diluted in reaction buffer and 5 μL was added to the microplate, spun down briefly and incubated for 60 minutes at 30° C. The final Myt1 enzyme concentration was 18 nM and the final ATP concentration was 10 μM. After the 60-minute incubation, 15 μL of ADP-Glo reagent was added and the plate was spun briefly and sealed and incubated in the dark for 40 minutes at 22° C. Following this, 30 μL of kinase detection reagent was added per well and the plate was spun briefly, sealed and incubated for 45-60 minutes at 22° C. in the dark. Luminescence was read using the Envision (250 ms integration). The IC50 and the % max inhibition were calculated for each inhibitor compound tested.

Sequence of recombinant human Myt1 (full length PKMYT1) (Q99640 whole entry): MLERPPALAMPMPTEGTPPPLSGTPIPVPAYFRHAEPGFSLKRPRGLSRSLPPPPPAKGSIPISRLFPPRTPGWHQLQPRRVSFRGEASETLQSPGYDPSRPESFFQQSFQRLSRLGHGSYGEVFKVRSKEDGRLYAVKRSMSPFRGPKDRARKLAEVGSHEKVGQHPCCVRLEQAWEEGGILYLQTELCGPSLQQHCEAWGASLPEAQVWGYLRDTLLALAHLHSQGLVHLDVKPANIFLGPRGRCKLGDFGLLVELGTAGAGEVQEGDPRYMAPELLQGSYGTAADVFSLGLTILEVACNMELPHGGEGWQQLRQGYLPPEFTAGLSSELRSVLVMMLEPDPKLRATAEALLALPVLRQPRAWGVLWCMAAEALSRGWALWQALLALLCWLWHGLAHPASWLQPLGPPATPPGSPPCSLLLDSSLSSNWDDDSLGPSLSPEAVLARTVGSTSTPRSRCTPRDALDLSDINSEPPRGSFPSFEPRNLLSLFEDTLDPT

Row | Structure (SMILES) | IC50
1 | Cc1ccc2[nH]ncc2c1-c1cc(-c2cccc(OC[C@H]3CCCO3)n2)nc(C(N)=O)c1N [Compound 356] | 0.009 µM
2 | CO[C@@H](COc1cccc(-c2cc(-c3c(C)ccc4[nH]ncc34)c(N)c(C(N)=O)n2)n1)C1CC1 (atropisomer, axis not shown) [Compound 363] | 0.004 µM
3 | Cc1ccc2[nH]ncc2c1-c1nc(-c2ccc(N(C)C)cc2)nc(C(N)=O)c1N [Compound 145] | 0.057 µM
4 | COc1cnc(COc2cccc(-c3cc(-c4c(C)ccc5[nH]ncc45)c(N)c(C(N)=O)n3)n2)nc1 [Compound 255] | 0.072 µM
5 | Cc1ccc2[nH]ncc2c1-c1cc(-c2ccnc(OC3COC3)n2)nc(C(N)=O)c1N [Compound 176] | 0.77 µM
6 | Cc1ccc2[nH]ncc2c1-c1nc(-c2cccc3ccsc23)nc(C(N)=O)c1N [Compound 379] | 0.014 µM
7 | Cc1ccc(O)cc1-c1nc(C(N)=O)c(N)c(-c2cc(O)ccc2C)n1 [Compound 12] | 0.246 µM
8 | Cc1cc(-c2nc(C(N)=O)c(N)c(-c3cc(O)ccc3C)n2)cc(C)n1 [Compound 11] | 0.054 µM
9 | Cc1ccc2[nH]ncc2c1-c1cc(-c2ccnc(NCC3(O)COC3)n2)nc(C(N)=O)c1N (atropisomer, axis not shown) [Compound 394] | 0.098 µM
10 | Cc1ccc2[nH]ncc2c1-c1cc(-c2csc(C(C)(C)O)n2)nc(C(N)=O)c1N [Compound 225] | 0.161 µM
11 | Cc1ccc2[nH]ncc2c1-c1cc(-c2ccnc(N3Cc4ccccc4C[C@H]3CO)n2)nc(C(N)=O)c1N (atropisomer, axis not shown) [Compound 392] | 0.461 µM
12 | Cc1ccc2[nH]ncc2c1-c1nc(-c2ccc(C3(C#N)CC3)cc2)nc(C(N)=O)c1N [Compound 125] | 0.051 µM
13 | CCC(COc1cccc(-c2cc(-c3c(C)ccc4[nH]ncc34)cc(C(N)=O)n2)n1)OC (stereo not shown) [Compound 498] | 0.093 µM
14 | Cc1ccc2[nH]ncc2c1-c1cc(-c2ccnc(OC[C@H]3CCC(=O)N3)n2)nc(C(N)=O)c1N [Compound 337] | 0.019 µM
15 | COCc1cccc(-c2nc(C(N)=O)c(N)c(-c3c(C)ccc4[nH]ncc34)n2)c1 [Compound 292] | 0.018 µM
16 | Cc1cc(-c2nc(C(N)=O)c(N)c(-c3c(C)ccc4[nH]ncc34)n2)cc(C(F)(F)F)c1 [Compound 144] | 0.13 µM
17 | Cc1ccc2[nH]ncc2c1-c1cc(-c2cc[nH]c(=O)c2)nc(C(N)=O)c1N [Compound 237] | 0.048 µM
18 | Cc1ccc(O)cc1-c1nc(-c2cccc(C(N)=O)c2)nc(C(N)=O)c1N [Compound 8] | 0.025 µM
19 | Cc1ccc2[nH]ncc2c1-c1nc(-c2ccc(OC3CCOCC3)c(C#N)c2)nc(C(N)=O)c1N [Compound 118] | 0.309 µM
20 | Cc1ccc2[nH]ncc2c1-c1cc(-c2ccnc(OCc3cc4ccccc4o3)n2)nc(C(N)=O)c1N [Compound 196] | 0.754 µM
21 | Cc1ccc2[nH]ncc2c1-c1nc(-c2cccc3cc[nH]c23)nc(C(N)=O)c1N [Compound 366] | 0.028 µM
22 | CO[C@@H](COc1nccc(-c2cc(-c3c(C)ccc4[nH]ncc34)c(N)c(C(N)=O)n2)n1)c1ccccc1 (atropisomer, axis not shown) [Compound 308] | 1.74 µM
23 | Cc1ccc2[nH]ncc2c1-c1cc(-c2ccnc(N[C@H](CO)Cc3ccccc3)n2)nc(C(N)=O)c1N (atropisomer, axis not shown) [Compound 370] | 0.869 µM
24 | Cc1ccc2[nH]ncc2c1-c1cc(-c2ccccn2)nc(C(N)=O)c1N [Compound 96] | 0.387 µM
25 | Cc1ccc2[nH]ncc2c1-c1cc(-c2ccc(OC3COC3)nc2)nc(C(N)=O)c1N [Compound 201] | 0.091 µM
26 | Cc1ccc2[nH]ncc2c1-c1cc(-c2ccnc(N3CCCC(CO)C3)n2)nc(C(N)=O)c1N (stereo not shown) [Compound 346] | 0.013 µM
27 | Cc1ccc2[nH]ncc2c1-c1cc(-c2ccnc(OCc3nc4ccccc4n3C)n2)nc(C(N)=O)c1N [Compound 336] | 0.065 µM
28 | Cc1ccc2[nH]ncc2c1-c1cc(-c2ccnc(OCCN(C)C(=O)OC(C)(C)C)n2)nc(C(N)=O)c1N [Compound 209] | 0.073 µM
